According to article PMC10578023 (Cell Communication and Signaling : CCS, 2023):

Tests used:
[1] = test system: IL-12/IL-18-driven IFNγ production; test: IL-12/IL-18-induced IFNγ release in mice; type: in vivo
Method: Healthy female, specific pathogen-free C57BL/6 mice (6–8 weeks) were intraperitoneally (i.p.) injected with IL-12 and IL-18 to drive IFNγ production. Mice were numbered, weighed and divided randomly into seven groups of five according to body weight using Excel™ (Office™; Microsoft, Redmond, WA, USA). One hour after drug administration, IL-12 (0.01 μg/mouse) was i.p. injected. One hour later, recombinant IL-18 (0.1 μg/mouse) was injected. Whole blood was collected 3 h later and centrifuged (300 g, 10 min, 4 °C), and serum was collected. IFNγ expression in serum was determined by a CBA Flex kit (BD Biosciences).

[2] = biological target: T1, human TYK2 pseudokinase domain (JH2) (Homo sapiens, UniProt P29597); test: TYK2 pseudokinase domain (JH2) binding assay, HTRF tracer competition
T1 construct: was added to the recombinant TYK2 pseudokinase domain
Method: An assay that measures the ability of a compound to bind to the TYK2 pseudokinase domain through competition with a tracer was employed. First, human polyhistidine-tag (his-tagged) TYK2 pseudokinase was added to different concentrations of QL-1200186. […] After 1 h at RT, the homogeneous time-resolved fluorescence (HTRF) signal was measured on a plate reader (Envision™; PerkinElmer, Waltham, MA, USA).

JAK2/JAK2 = test: GM-CSF-stimulated pSTAT5 in U937 cells; type: cell-based, human
Method: With respect to GM-CSF-stimulated JAK2 activation in U937 cells (Cobioer Biosciences, CBP60277), after 1 h of treatment with QL-1200186, U937 cells were stimulated with GM-CSF (20 ng/mL; C003; Novoprotein, Suzhou, China) for 15 min.
(§1) The stimulations stated above were terminated with prewarmed Lyse/Fix Buffer (558,049; BD Biosciences, San Jose, CA, USA) for 10 min. Cells were stained with an anti-cluster of differentiation (CD)3 fluorescein isothiocyanate (FITC) antibody (required for PBMCs but not for the other cell types), washed, and permeabilized on ice using Perm III Buffer (558,050; BD Biosciences) prior to staining with an Alexa Fluor 647 anti-phosphorylated (p)STAT5 (pY694) antibody for 30 min and analyzed by flow cytometry. Phosphorylation of STAT5 was quantified by the median fluorescence intensity (MFI) after gating on the CD3-positive population.

human monocytes = test: IFNα-induced differentiation of human monocytes to dendritic cells (CD80, CD83, CD86); type: cell-based; conditions: 5, 20 or 100 nM, 6 days
Method: First, monocytes in human PBMCs were isolated using an EasySep™ Human CD14 Positive Selection Kit II (17858; Stemcell Technologies, Vancouver, Canada). […] The media were half-changed on days 3 and 5. On day 6, cells were collected and stained with BV421 aqua fluorescent reactive dye (L34966A; Invitrogen), FITC mouse anti-human CD80 (555683; BD Biosciences), PE mouse anti-human CD86 (560957; BD Biosciences) or BUV737 mouse anti-human CD83 (612823; BD Biosciences) antibodies for 20 min. After staining, cells were washed twice and analyzed by flow cytometry.

[3] = Pharmacokinetic study in C57BL/6 mice; type: in vivo
Method: The PK study was conducted using healthy male C57BL/6 mice (18–22 g, n = 6). Mice were fed and given free access to water prior to dosing. QL-1200186 was administered via oral or intravenous routes at doses of 10 mg/kg and 1 mg/kg, respectively. Blood samples were collected at 0.0833, 0.25, 0.5, 1, 2, 4, 8 and 24 h from the saphenous vein. Plasma was separated within 1 h of sampling by centrifugation at 1000 g. Liquid chromatography–tandem mass spectrometry of the sample was carried out on a mass spectrometer (API 5500; AB Sciex, Framingham, MA, USA). Chromatographic separation was achieved using a C18 column (2.6 µm, 50 × 3.0 mm; Kinetex; Phenomenex, Torrance, CA, USA). The main PK parameters were calculated by WinNonlin 8.0 (Certara, Princeton, NJ, USA).

[4] = test system: forty-four safety targets; test: In vitro off-target panel of 44 safety targets; conditions: 10 µM
Method: The pharmacologic safety of QL-1200186 was tested by analyzing forty-four safety targets in vitro. The off-target effects of QL-1200186 on 24 G protein-coupled receptors (β1, β2, D1, H2, A2A, CB1, CB2,5-HT1A, 5-HT1B and D2S) were evaluated by measuring the changes in cyclic adenosine monophosphate and IP-1 levels. The effects of QL-1200186 on the current changes of eight ion-channel targets were determined by methods based on fluorescent imaging plate reading and patch clamps. Using stable transfer or transient plasmid transfer, the excitatory and inhibitory effects of QL-1200186 on glucocorticoid receptors and androgen receptors in the nucleus were determined by the change in luciferase expression. The inhibitory effects of QL-1200186 on seven enzymes (including cyclo-oxygenase-2, phosphodiesterase (PDE) 3A and PDE4D2) were evaluated by biochemical methods based on luminescence and fluorescence. After data analyses, radar charts were used to display the results.

CYP450 2C19 = CYP450 2C19 (Homo sapiens, UniProt P33261); test: CYP inhibition assay; type: in vitro ADME
Method: (§2) The ADME properties of QL-1200186 in vitro were measured by the following assays: Caco-2 permeability assay, CYP inhibition assay, protein binding assay, and liver microsome assay. Each assay was performed as previously described.

CYP450 2D6 = CYP450 2D6 (Homo sapiens, UniProt P10635); test: CYP inhibition assay; type: in vitro ADME
Method: as §2

CYP450 3A4/5 = test: CYP inhibition assay; type: in vitro ADME
Method: as §2

CYP450 2C9 = CYP450 2C9 (Homo sapiens, UniProt P11712); test: CYP inhibition assay; type: in vitro ADME
Method: as §2

[5] = Caco-2 permeability assay; type: in vitro ADME
Method: as §2

JAK1/JAK3 = test: IL-2-stimulated pSTAT5 in human whole blood; type: cell-based
Method: With respect to IL-2-stimulated JAK1/3 activation in human whole blood cells, whole blood (50 μL) was preincubated with compounds for 30 min and then stimulated with IL-2 (20 ng/mL) for 15 min.
as §1

T1 sequence (P29597 589-875 limits assumed): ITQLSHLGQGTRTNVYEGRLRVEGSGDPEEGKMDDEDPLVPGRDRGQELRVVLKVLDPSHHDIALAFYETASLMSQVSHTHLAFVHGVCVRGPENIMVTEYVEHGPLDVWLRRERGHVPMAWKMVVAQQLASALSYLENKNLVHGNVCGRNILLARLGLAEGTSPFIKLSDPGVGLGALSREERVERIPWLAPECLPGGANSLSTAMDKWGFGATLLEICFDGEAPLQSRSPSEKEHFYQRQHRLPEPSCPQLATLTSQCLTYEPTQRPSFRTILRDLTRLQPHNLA
CYP450 2D6, sequence (P10635 whole entry): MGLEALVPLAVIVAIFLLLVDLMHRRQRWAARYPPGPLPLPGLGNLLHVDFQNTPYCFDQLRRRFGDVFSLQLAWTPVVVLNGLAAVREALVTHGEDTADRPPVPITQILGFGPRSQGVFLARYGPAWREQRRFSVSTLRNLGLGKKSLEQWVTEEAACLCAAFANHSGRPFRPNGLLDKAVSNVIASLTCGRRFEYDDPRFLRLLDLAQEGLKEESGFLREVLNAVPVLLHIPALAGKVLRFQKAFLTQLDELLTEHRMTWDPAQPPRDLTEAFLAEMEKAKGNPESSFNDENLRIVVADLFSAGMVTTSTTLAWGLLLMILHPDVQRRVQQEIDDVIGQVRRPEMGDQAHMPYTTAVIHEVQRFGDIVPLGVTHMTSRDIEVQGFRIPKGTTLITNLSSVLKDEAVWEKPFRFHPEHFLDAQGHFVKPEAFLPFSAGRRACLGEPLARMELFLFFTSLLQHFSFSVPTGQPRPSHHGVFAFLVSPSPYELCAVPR
CYP450 2C19, sequence (P33261 whole entry): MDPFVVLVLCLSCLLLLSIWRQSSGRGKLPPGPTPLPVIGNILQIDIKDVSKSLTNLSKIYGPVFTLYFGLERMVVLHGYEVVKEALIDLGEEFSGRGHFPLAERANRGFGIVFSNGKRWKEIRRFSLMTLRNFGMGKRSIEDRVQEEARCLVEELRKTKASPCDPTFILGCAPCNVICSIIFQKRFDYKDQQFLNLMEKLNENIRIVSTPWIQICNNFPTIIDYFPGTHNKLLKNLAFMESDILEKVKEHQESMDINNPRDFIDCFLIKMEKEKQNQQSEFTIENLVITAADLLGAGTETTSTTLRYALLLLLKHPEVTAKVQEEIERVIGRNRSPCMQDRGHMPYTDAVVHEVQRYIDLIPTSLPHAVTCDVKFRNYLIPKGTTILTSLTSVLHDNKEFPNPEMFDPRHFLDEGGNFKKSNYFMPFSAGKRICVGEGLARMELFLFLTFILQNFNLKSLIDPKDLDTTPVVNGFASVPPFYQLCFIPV
CYP450 2C9, sequence (P11712 whole entry): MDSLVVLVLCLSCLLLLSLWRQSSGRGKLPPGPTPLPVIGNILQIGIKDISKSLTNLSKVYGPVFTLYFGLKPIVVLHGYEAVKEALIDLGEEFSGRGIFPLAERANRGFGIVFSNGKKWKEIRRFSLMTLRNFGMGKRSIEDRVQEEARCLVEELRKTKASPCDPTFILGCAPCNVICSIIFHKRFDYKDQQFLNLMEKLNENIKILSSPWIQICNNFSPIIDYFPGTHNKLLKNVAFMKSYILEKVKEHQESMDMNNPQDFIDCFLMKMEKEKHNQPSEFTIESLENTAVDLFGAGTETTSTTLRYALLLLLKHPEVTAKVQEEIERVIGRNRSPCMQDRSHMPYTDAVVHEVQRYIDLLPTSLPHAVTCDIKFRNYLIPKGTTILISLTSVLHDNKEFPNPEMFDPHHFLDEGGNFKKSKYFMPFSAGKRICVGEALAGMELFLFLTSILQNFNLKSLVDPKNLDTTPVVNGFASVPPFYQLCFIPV

## CNC(=O)c1cnc2cc1Nc1cc(cc(-c3ccn(C)n3)c1OC)CCOCc1cccc(n1)N2 [QL-1200186, 5^6-methoxy-N-methyl-5^5-(1-methyl-1H-pyrazol-3-yl)-8-oxa-2,4-diaza-1(2,6),3(2,4)-dipyridina-5(1,3)-benzenacyclononaphane-3^5-carboxamide]
[1]; oral 10 mg/kg
  inhibition of serum IFNγ production: 97.8%
[1]; oral, 0.1 mg/kg
  inhibition of serum IFNγ production: 77.1%
[1]; oral, 1 mg/kg
  inhibition of serum IFNγ production: 86.9%
[2]; TYK2 JH2 over JAK1 JH2 binding
  Selectivity fold (TYK2/JAK1): 164 fold
[2]; recombinant TYK2 JH2 domain
  IC50: 0.06 nM
JAK2/JAK2; @10μM
  GM-CSF-pSTAT5 in U937 (JAK2/JAK2) inhibition: no inhibition @10μM
JAK2/JAK2; JAK2/JAK2-dependent, read-out: GM-CSF-stimulated STAT5 phosphorylation IC50
  IC50: > 10 µM
Human monocytes
  differentiation and maturation of monocytes into dendritic cells (CD80, CD83, CD86 expression): significantly inhibited
[3]; intravenous 1 mg/kg
  AUC: 1482 ng·h/mL
  CL: 11.6 mL/min/kg
  MRTInf: 1.22 h
  T1/2: 1.45 h
  Vss: 0.842 L/kg
[3]; oral 10 mg/kg
  AUC: 20320 ng·h/mL
  Cmax: 3543 ng/mL
  F (bioavailability): 137%
  MRTInf: 4.34 h
  T1/2: 2.73 h
[4]
  in vitro off-target safety, 44 safety targets: suitable safety
CYP450 2C19
  IC50: 2.9 µM
CYP450 2D6
  IC50: > 50 µM
CYP450 3A4/5
  IC50: > 50 µM
CYP450 2C9
  IC50: 6.4 µM
[5]
  Caco-2 ER (efflux ratio): 1.4
JAK1/JAK3
  activity in IL-2-mediated JAK1/JAK3 signaling: no activity
